Assay results from ChEMBL document CHEMBL5291721, “A preclinical secondary pharmacology resource illuminates target-adverse drug reaction associations of marketed drugs” (Nat Commun, 2023).

Columns and labels:
[1] = molecular target: D(1A) dopamine receptor (Homo sapiens, UniProt P21728); assay type: functional, cell-based
[2] = molecular target: T1, Alpha-2A adrenergic receptor (Homo sapiens, UniProt P08913); assay type: functional, cell-based
T1 sequence (P08913 whole entry): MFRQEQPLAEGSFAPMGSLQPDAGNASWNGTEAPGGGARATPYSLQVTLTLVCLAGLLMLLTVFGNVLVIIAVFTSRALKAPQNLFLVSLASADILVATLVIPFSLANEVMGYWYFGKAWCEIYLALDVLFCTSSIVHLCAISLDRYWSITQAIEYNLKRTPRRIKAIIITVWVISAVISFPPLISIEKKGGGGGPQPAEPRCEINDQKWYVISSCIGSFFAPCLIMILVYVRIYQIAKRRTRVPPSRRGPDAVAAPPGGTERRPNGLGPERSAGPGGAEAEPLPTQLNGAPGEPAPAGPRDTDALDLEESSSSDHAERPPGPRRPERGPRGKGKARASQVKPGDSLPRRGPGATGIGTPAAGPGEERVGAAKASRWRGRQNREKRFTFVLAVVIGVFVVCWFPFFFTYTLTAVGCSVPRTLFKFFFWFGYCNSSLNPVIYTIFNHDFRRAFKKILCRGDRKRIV

[3] = molecular target: Kappa-type opioid receptor (Homo sapiens, UniProt P41145)
Chain of Kappa-type opioid receptor (P41145 whole entry): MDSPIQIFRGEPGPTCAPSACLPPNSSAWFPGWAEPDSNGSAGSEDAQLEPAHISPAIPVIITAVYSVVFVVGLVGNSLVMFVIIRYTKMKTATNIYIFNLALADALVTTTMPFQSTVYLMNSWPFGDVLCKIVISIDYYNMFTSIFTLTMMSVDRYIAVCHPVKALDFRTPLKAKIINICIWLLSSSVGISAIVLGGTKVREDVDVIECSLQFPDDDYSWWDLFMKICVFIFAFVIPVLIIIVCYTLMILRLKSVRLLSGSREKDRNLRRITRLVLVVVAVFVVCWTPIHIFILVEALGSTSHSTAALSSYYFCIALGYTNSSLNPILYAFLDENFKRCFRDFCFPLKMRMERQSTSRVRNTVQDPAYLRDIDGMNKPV

[4] = molecular target: T2, Histamine H3 receptor (Homo sapiens, UniProt Q9Y5N1)
T2 sequence (Q9Y5N1 whole entry): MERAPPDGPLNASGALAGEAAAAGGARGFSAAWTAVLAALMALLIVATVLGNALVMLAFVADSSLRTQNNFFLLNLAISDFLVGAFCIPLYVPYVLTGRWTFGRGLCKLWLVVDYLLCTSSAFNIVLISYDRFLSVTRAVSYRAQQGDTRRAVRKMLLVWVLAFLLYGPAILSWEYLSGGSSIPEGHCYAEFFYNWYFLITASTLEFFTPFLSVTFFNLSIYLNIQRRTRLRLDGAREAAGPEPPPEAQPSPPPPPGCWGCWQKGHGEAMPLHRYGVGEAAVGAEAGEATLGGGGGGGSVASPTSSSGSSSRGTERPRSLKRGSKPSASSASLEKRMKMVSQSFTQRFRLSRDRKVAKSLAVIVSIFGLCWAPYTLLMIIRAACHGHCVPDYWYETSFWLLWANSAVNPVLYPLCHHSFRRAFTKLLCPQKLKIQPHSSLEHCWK

[5] = molecular target: T3, Gamma-aminobutyric acid receptor subunit alpha-1 (Rattus norvegicus, UniProt P62813); assay type: functional
T3 sequence (P62813 whole entry): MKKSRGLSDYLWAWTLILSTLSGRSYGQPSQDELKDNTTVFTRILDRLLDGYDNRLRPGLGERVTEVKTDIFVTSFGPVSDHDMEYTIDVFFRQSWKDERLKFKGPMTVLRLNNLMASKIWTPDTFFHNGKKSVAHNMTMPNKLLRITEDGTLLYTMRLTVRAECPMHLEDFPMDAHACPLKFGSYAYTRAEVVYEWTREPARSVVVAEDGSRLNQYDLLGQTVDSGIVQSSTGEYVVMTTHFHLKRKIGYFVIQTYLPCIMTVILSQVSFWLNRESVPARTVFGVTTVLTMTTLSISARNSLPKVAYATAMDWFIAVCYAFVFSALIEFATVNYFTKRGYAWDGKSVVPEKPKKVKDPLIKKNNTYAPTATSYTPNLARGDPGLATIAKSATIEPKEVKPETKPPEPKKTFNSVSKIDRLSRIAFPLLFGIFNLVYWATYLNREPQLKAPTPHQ

[6] = molecular target: T4, Sodium-dependent dopamine transporter (Homo sapiens, UniProt Q01959)
T4 sequence (Q01959 whole entry): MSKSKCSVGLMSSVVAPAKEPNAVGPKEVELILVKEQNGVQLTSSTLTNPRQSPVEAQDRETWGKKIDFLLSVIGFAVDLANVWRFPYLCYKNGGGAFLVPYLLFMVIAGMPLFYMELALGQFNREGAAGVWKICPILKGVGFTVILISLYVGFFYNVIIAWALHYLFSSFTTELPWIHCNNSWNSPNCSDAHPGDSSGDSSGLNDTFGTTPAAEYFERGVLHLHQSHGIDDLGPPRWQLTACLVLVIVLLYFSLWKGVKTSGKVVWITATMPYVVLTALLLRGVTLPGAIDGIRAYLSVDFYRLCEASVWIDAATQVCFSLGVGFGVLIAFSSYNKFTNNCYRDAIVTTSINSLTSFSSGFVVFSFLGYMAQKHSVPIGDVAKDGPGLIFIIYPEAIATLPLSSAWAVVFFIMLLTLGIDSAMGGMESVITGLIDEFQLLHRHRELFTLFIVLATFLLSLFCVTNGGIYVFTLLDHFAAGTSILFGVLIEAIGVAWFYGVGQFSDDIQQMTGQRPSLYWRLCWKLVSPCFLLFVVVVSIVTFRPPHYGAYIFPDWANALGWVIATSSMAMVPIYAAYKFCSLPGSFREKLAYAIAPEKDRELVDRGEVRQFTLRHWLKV

[7] = molecular target: T5, Mu-type opioid receptor (Homo sapiens, UniProt P35372); assay: biochemical; assay type: functional
T5 sequence (P35372 whole entry): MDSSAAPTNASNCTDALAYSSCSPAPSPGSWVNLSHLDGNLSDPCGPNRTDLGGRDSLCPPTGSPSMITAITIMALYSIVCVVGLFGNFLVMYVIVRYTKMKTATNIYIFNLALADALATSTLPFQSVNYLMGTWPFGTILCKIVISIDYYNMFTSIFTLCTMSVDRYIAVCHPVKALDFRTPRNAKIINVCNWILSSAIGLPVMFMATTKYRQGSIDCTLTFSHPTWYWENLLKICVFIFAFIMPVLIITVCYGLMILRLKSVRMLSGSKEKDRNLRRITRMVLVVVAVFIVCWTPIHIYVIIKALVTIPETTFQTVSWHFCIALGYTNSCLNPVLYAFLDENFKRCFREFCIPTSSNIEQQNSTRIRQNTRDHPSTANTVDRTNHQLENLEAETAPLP

[8] = molecular target: T3, Gamma-aminobutyric acid receptor subunit alpha-1
[9] = molecular target: T6, 5-hydroxytryptamine receptor 1A (Homo sapiens, UniProt P08908); assay type: functional, cell-based
T6 sequence (P08908 whole entry): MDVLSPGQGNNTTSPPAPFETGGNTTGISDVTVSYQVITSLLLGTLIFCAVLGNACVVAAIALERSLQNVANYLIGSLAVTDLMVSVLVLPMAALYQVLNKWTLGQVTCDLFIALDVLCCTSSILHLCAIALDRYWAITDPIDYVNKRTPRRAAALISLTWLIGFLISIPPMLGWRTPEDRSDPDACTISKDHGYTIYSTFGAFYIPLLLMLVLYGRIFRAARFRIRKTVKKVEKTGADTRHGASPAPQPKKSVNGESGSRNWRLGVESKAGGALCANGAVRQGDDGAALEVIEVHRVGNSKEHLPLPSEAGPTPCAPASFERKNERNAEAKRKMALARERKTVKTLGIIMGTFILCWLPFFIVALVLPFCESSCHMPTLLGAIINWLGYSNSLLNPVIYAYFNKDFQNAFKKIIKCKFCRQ

[10] = molecular target: T4, Sodium-dependent dopamine transporter; remark: listed apart in the source
[11] = molecular target: T6, 5-hydroxytryptamine receptor 1A; assay type: functional, cell-based; remark: listed apart in the source
[12] = molecular target: T2, Histamine H3 receptor; remark: listed apart in the source
[13] = molecular target: T5, Mu-type opioid receptor
[14] = molecular target: D(3) dopamine receptor (Homo sapiens, UniProt P35462)
Chain of D(3) dopamine receptor (P35462 whole entry): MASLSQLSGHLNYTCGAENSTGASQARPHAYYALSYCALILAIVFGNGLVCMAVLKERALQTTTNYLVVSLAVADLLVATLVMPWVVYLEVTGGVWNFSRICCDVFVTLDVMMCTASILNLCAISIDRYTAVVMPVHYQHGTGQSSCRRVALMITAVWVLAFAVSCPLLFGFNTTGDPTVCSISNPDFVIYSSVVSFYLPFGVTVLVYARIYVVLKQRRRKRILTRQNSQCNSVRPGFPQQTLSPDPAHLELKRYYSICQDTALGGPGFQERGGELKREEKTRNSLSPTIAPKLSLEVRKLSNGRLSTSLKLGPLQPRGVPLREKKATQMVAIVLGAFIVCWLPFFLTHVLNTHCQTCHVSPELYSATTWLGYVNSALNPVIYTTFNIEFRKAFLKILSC

[15] = molecular target: Adenosine receptor A2a (Homo sapiens, UniProt P29274)
Chain of Adenosine receptor A2a (P29274 whole entry): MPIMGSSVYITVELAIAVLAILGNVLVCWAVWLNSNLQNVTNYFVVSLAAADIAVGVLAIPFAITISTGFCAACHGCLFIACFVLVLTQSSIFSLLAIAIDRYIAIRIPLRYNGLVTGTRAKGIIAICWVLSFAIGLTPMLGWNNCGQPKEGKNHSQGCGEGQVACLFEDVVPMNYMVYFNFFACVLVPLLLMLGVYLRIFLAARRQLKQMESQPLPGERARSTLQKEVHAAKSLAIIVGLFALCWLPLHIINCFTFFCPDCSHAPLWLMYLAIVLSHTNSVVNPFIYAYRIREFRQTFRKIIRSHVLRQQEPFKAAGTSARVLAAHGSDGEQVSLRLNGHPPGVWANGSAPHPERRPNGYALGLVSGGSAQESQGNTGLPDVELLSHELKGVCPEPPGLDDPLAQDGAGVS

[16] = molecular target: T7, Alpha-2C adrenergic receptor (Homo sapiens, UniProt P18825); assay type: functional
T7 sequence (P18825 whole entry): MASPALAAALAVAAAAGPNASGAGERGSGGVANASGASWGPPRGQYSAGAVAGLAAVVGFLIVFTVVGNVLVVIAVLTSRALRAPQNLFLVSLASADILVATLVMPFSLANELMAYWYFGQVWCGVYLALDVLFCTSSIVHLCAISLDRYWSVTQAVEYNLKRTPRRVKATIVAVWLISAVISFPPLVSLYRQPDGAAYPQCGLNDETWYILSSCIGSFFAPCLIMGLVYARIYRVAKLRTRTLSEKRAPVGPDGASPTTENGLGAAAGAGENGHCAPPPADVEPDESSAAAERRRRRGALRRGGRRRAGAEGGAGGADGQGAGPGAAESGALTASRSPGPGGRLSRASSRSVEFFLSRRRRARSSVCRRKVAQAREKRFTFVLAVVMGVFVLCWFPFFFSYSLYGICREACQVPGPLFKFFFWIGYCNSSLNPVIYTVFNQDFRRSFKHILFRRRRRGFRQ

[17] = molecular target: T8, Endothelin-1 receptor (Homo sapiens, UniProt P25101)
T8 sequence (P25101 whole entry): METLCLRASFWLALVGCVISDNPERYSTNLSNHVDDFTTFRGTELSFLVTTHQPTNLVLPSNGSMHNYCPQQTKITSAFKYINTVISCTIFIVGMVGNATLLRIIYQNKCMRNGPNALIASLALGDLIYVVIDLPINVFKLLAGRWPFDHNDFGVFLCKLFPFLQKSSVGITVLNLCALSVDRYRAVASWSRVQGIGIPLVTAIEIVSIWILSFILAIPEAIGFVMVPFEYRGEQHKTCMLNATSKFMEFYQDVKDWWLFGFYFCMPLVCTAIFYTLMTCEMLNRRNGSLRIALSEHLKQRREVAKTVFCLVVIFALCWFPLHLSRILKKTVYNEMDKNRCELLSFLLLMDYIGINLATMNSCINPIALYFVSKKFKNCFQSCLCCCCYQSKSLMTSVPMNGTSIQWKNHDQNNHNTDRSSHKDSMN

[18] = molecular target: T9, Cannabinoid receptor 1 (Homo sapiens, UniProt P21554); assay type: functional, cell-based
T9 sequence (P21554 whole entry): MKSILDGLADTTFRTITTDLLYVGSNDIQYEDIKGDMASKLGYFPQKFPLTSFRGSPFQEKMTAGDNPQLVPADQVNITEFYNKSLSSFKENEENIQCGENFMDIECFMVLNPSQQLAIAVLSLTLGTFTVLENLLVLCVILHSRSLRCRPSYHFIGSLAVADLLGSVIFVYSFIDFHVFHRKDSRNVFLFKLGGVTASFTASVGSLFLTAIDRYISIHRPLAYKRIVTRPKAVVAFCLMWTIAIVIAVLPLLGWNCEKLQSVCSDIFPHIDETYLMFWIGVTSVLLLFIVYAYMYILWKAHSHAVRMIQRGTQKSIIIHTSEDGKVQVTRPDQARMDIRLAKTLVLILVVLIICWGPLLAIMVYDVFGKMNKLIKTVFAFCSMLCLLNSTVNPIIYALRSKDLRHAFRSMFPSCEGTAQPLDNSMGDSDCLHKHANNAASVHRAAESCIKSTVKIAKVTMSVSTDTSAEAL

[19] = molecular target: T9, Cannabinoid receptor 1; assay type: functional, cell-based; remark: listed apart in the source
Further: assay procedure not described here.

Chain of D(1A) dopamine receptor (P21728 whole entry): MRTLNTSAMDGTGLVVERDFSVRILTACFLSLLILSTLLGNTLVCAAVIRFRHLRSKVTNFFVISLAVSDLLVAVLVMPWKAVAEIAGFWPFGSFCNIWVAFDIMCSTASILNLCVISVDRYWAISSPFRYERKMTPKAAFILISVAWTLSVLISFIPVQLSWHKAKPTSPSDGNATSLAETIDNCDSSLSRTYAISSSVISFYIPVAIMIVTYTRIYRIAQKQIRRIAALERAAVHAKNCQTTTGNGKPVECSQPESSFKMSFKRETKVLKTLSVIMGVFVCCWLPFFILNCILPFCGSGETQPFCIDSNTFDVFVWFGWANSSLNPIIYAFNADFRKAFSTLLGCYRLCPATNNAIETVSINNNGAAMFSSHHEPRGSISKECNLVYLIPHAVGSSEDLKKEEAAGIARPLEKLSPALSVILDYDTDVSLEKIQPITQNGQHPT

| SMILES | AC50 [1] [µM] | AC50 [2] [µM] | AC50 [3] [µM] | AC50 [4] [µM] | AC50 [5] [µM] | AC50 [6] [µM] | AC50 [7] [µM] | AC50 [8] [µM] | AC50 [9] [µM] | AC50 [10] [µM] | AC50 [11] [µM] | AC50 [12] [µM] | AC50 [13] [µM] | AC50 [14] [µM] | AC50 [15] [µM] | AC50 [16] [µM] | AC50 [17] [µM] | AC50 [18] [µM] | AC50 [19] [µM] |
| --- | --- | --- | --- | --- | --- | --- | --- | --- | --- | --- | --- | --- | --- | --- | --- | --- | --- | --- | --- |
| CC(C)C(=O)Nc1ccc([N+](=O)[O-])c(C(F)(F)F)c1 [FLUTAMIDE] | > 30 | > 10 | > 10 | > 30 | > 10 | > 10 | > 30 | > 10 | > 10 | > 30 | > 10 | > 30 | > 30 | > 30 | > 30 | > 10 |  |  |  |
| NC[C@H]1O[C@H](O[C@H]2[C@H](O)[C@@H](O[C@H]3O[C@H](CO)[C@@H](O)[C@H](N)[C@H]3O)[C@H](N)C[C@@H]2N)[C@H](O)[C@@H](O)[C@@H]1O [KANAMYCIN] | > 30 | > 10 | > 30 |  | > 10 | > 10 | > 30 | > 10 | > 10 |  | > 10 |  |  | > 30 | > 10 | > 30 |  |  |  |
| C[C@H]1C[C@@H]2[C@H]([C@@H](O)C[C@@]3(C)[C@H]2CC[C@]3(O)C(=O)CO)[C@@]2(C)C=CC(=O)C=C12 [METHYLPREDNISOLONE] | > 30 | > 10 | > 10 |  | > 10 | > 10 | > 30 | > 10 | > 10 |  | > 10 |  |  | > 30 | > 10 | > 30 |  |  |  |
| Cc1cccc(C)c1OCC(C)N (stereo not given) [MEXILETINE] | > 30 | > 30 |  |  |  | > 30 | > 30 |  |  |  | > 30 | > 30 |  |  | > 30 | > 30 | > 30 | > 30 | > 30 |
| CCc1nn(CCCN2CCN(c3cccc(Cl)c3)CC2)c(=O)n1CCOc1ccccc1 [NEFAZODONE] |  |  | 5.46 |  | > 10 |  | 7.6 | > 10 |  |  | 2 |  |  | 1.2 | > 30 | 0.63 | > 30 | > 30 | > 30 |
| COC(=O)C1=C(C)NC(C)=C(C(=O)OCC(C)C)C1c1ccccc1[N+](=O)[O-] (stereo not given) [NISOLDIPINE] | > 30 | > 10 | > 10 |  | > 10 | > 10 | > 30 | > 10 | > 10 |  | > 10 |  |  | 10 | 5.5 | > 10 |  | 12 | > 30 |
| NC1=NC(=O)C(c2ccccc2)O1 (stereo not given) [PEMOLINE] | > 10 | > 10 | > 10 |  | > 10 | 3.46 | > 30 | > 10 | > 10 |  | > 10 | > 10 |  | > 30 | > 30 | > 10 |  |  |  |
| CNC(=O)c1cc(Oc2ccc(NC(=O)Nc3ccc(Cl)c(C(F)(F)F)c3)cc2)ccn1 [SORAFENIB] | > 30 | > 30 | 23 |  | > 30 | 6.85 | > 30 | > 30 |  |  |  | > 30 |  | > 30 | > 30 | > 30 | > 30 | > 30 | > 30 |
| NC[C@H]1CC[C@H](C(=O)O)CC1 [TRANEXAMIC ACID] | > 30 | > 10 | > 10 |  | > 10 | > 10 | > 30 | > 10 | > 10 |  | > 10 |  |  | > 30 | > 10 | > 10 |  |  |  |
